The test system of series [1] is IL-1β. In words: IL-1β ELISA in brain homogenates of IL-6/MIA newborn mice. The class given is in vivo. Particulars: dams IL-6 5 μg i.p.; S31-201 4 μg i.p. or diosmin 10 mg/kg/day oral; P<0.01. As to the method: (§1) Mouse brain homogenates were prepared as described above and used at a dilution of 1:10 in PBS for these assays. Brain tissue-solubilized cytokines were quantified using commercially available ELISAs that allow for detection of IL-1β, and TNF-α. Cytokine detection was carried out according to the manufacturer's instruction. Total protein content was determined as described above and data represented as pg of cytokine/mg total cellular protein for each cytokine.
(§2) Pro-inflammatory cytokine analysis by ELISA was conducted on these newborn mouse brain homogenates. Data are represented as mean±SD of each cytokine in brain homogenates (pg/mg total protein) from these newborn mice.
(In general: In an ELISA, binding on a coated surface is turned into a signal by an enzyme label.)

Series [2] concerns IL-6 induced STAT3 phosphorylation. Description: STAT3 phosphorylation in brain homogenates of IL-6/MIA newborn mice, Western blot. The series is classed as in vivo. Particulars: dams IL-6 5 μg i.p. at E12.5; S31-201 4 μg i.p. or diosmin 10 mg/kg/day oral; vs IL-6 only, P<0.005. As to the method: (§3) Cultured cells were lysed in ice-cold lysis buffer (20 mM Tris, pH 7.5, 150 mM NaCl, 1 mM EDTA, 1 mM EGTA, 1% v/v Triton X-100, 2.5 mM sodium pyrophosphate, 1 mM β-glycerolphosphate, 1 mM Na3VO4, 1 μg/mL leupeptin, 1 mM PMSF) as described previously (Tan et al. 2002). Mouse brains were isolated under sterile conditions on ice and placed in ice-cold lysis buffer. Brains were then sonicated on ice for approximately 3 min, allowed to stand for 15 min at 4° C., then centrifuged at 15,000 rpm for 15 min at 4° C. Total protein content was estimated using the BCA protein assay (Pierce Biotechnology) and aliquots corresponding to 100 μg of total protein were electrophoretically separated using 10% Tris gels. Electrophoresed proteins were then transferred to nitrocellulose membranes (Bio-Rad, Richmond, Calif.), washed in Tris buffered saline with 0.1% Tween-20 (TBS/T), and blocked for 1 h at ambient temperature in TBS/T containing 5% (w/v) non-fat dry milk. After blocking, membranes were hybridized overnight at 4° C. with various primary antibodies. Membranes were then washed 3× for 5 min each in TBS/T and incubated for 1 h at ambient temperature with the appropriate HRP-conjugated secondary antibody (1:1000, Pierce Biotechnology). […] Densitometric analysis was conducted using a FluorS Multiimager with Quantity One™ software (Bio-Rad, Hercules, Calif.). […]
Background: In western blotting, separated proteins are transferred to a membrane and probed.

Series [3] relates to IL-1β. Description: IL-1β ELISA in brain homogenates of IL-6/MIA adult offspring. The series is classed as in vivo, mice. The conditions noted are these: maternal co-treatment with S31-201 or diosmin vs IL-6 only; P<0.05. As for the experimental part: as §1
(§4) At sacrifice, brain homogenates were prepared from offspring of mice treated with IL-6, IL-6/S31-201, IL-6/Diosmin or PBS (control) (n=8, 4 female/4 male). Pro-inflammatory cytokine analysis by ELISA was conducted on these mouse brain homogenates. Data are represented as mean±SD of each cytokine in brain homogenates (pg/mg total protein) from these mice.

The test system of series [4] is TNF-α. In words: TNF-α ELISA in brain homogenates of IL-6/MIA adult offspring. The series is classed as in vivo, mice. Particulars: maternal co-treatment with S31-201 or diosmin vs IL-6 only; P<0.05. As to the method:
as §1, §4

Series [5] relates to IL-6/MIA adult offspring. In words: Social interaction test in IL-6/MIA adult offspring. The series is classed as in vivo, mice. Particulars: for social interaction test, sniffing time: maternal S31-201 or diosmin vs IL-6/MIA, P<0.05; for social interaction test, social impairment (preference for the social chamber): maternal co-treatment with S31-201 4 μg i.p. or diosmin 10 mg/kg/day oral, P<0.005. As for the experimental part: Pregnant C57BL/6 mice, embryonic day 2 (E2) were obtained from Jackson Laboratory (Bar Harbor, […].) and individually housed and maintained in an animal facility of the University of South Florida (USF). All subsequent experiments were performed in compliance with protocols approved by the USF Institutional Animal Care and Use Committee. […] Intraperitoneal PBS injection (200 μL) was used as the control for IL-6 administration. Social interaction (SI)—The testing apparatus consisted of a 60×40 cm Plexiglas box divided into three chambers. Mice were able to move between chambers through a small opening (6×6 cm) in the dividers. Plastic cylinders in each of the two side chambers contained the probe mice, and numerous 1 cm holes in the cylinders enabled test and probe mice to contact each other. Test mice were placed in the center chamber, with an overhead camera recording their movements. Mice were allowed 5 min of exploration time in the box, after which an unfamiliar, same-sex probe mouse from the same experimental group was placed in one of two restraining cylinders (Radyushkin et al. 2009). The Ethovision software (Noldus, Leesburg, Va.) program measured time spent in each of the three chambers, and social preference was defined as follows: (% time spent in the social chamber)−(% time spent in the opposite chamber). […] We also treated control mice (non-IL-6 treated) with the STAT3 inhibitor, S31. […] (10 mg/kg/day)]. […] Heightened anxiety and social interaction deficits are hallmarks of schizophrenia and autism. Reluctance to enter the center portion of a well-lit open field is usually taken as a measure of heightened anxiety under mildly stressful conditions (Smith et al., 2007).

Series [6] deals with STAT3 phosphorylation (Ser727). Description: STAT3 phosphorylation in brain homogenates of IL-6/MIA adult offspring, Western blot. The series is classed as in vivo, mice. The conditions noted are these: maternal co-treatment with S31-201 or diosmin vs IL-6 only; P<0.005. As for the experimental part:
as §3

Series [7] concerns IL-6 induced JAK2 phosphorylation. In words: JAK2 phosphorylation in brain homogenates of IL-6/MIA newborn mice, Western blot. The series is classed as in vivo. The conditions noted are these: dams IL-6 5 μg i.p. at E12.5; S31-201 4 μg i.p. or diosmin 10 mg/kg/day oral; vs IL-6 only, P<0.005. As to the method: as §3
The subject of series [8] is TNF-α. Description: TNF-α ELISA in brain homogenates of IL-6/MIA newborn mice. The series is classed as in vivo. The conditions noted are these: dams IL-6 5 μg i.p.; S31-201 4 μg i.p. or diosmin 10 mg/kg/day oral; P<0.01. As to the method:
as §1, §2

Series [9] has as its system IL-6/MIA adult offspring. The conditions noted are these: for open-field test, entries into the center: adult offspring of IL-6 treated dams co-treated with S31-201 4 μg i.p. or diosmin 10 mg/kg/day oral, P<0.01. As for the experimental part:
Pregnant C57BL/6 mice, embryonic day 2 (E2) were obtained from Jackson Laboratory (Bar Harbor, […].) and individually housed and maintained in an animal facility of the University of South Florida (USF). All subsequent experiments were performed in compliance with protocols approved by the USF Institutional Animal Care and Use Committee. […] Intraperitoneal PBS injection (200 μL) was used as the control for IL-6 administration. Open field (OF)—The OF behavioral analysis is a test of both locomotor activity and emotionality in rodents (Radyushkin et al. 2009). Mice were placed in a 50×50 cm white Plexiglas box brightly lit by fluorescent room lighting and six 60 W incandescent bulbs approximately 1.5 m above the box. Activity was recorded by a ceiling-mounted video camera and analyzed from digital video files either by the automated tracking capabilities of Ethovision or counted using the behavior tracker (version 1.5, www.behaviortracker.com), a software-based event-recorder. The total distance moved and numbers of entries into the center of the arena (central 17 cm square) were determined in a 10 minute session. […] We also treated control mice (non-IL-6 treated) with the STAT3 inhibitor, S31. […] (10 mg/kg/day)]. […] Heightened anxiety and social interaction deficits are hallmarks of schizophrenia and autism. Reluctance to enter the center portion of a well-lit open field is usually taken as a measure of heightened anxiety under mildly stressful conditions (Smith et al., 2007).

The conditions of series [10]: after intestinal transformation of diosmin to diosmetin and absorption; cited from earlier work.
The test system of series [11] is STAT3 activation/phosphorylation induced by IL-6. Description: STAT3 activation induced by IL-6 in cultured neuronal cells (PC12 and N2a), Western blot. The series is classed as cell-based. Particulars: dose-dependent.
The conditions of series [12]: 500-2,000 mg per day orally for up to one year; cited from earlier work.
Series [13] relates to IL-6 induced STAT3 phosphorylation (Ser727). In words: IL-6 induced STAT3 phosphorylation in N2a and primary neuronal cells, Western blot. Particulars: IL-6 50 ng/mL, 30 min. The class given is cell-based, murine. As to the method:
(§5) Cerebral cortices were isolated from C57BL/6 mouse embryos, between 15 and 17 days in utero. After 15 min of incubation in trypsin (0.25%) at 37° C., individual cortices were mechanically dissociated. Cells were collected after centrifugation at 1200 rpm, resuspended in DMEM supplemented with 10% fetal calf serum, 10% horse serum, uridine ([…]; Sigma) and fluorodeoxyuridine ([…]; Sigma), and plated in 24 well collagen coated culture plates at a density of 2.5×10^5 cells per well.
(§6) N2a (murine neuroblastoma) cells, purchased from the American Type Culture Collection (ATCC, Manassas, Va.) were grown in complete EMEM supplemented with 10% fetal calf serum. Cells were plated in 24 well collagen coating culture plates at a density of 1×10^5 cells per well. After overnight incubation, N2a cells were incubated in neurobasal media supplemented with 3 mM dibutyryl cAMP in preparation for treatment. […]
(§7) Cultured cells were lysed in ice-cold lysis buffer (20 mM Tris, pH 7.5, 150 mM NaCl, 1 mM EDTA, 1 mM EGTA, 1% v/v Triton X-100, 2.5 mM sodium pyrophosphate, 1 mM β-glycerolphosphate, 1 mM Na3VO4, 1 μg/mL leupeptin, 1 mM PMSF) as described previously (Tan et al. 2002). […] Densitometric analysis was conducted using a FluorS Multiimager with Quantity One™ software (Bio-Rad, Hercules, Calif.). […]

Series [14] has as its system IL-6 induced JAK2 phosphorylation. Description: IL-6 induced JAK2 phosphorylation in N2a and primary neuronal cells, Western blot. Particulars: IL-6 50 ng/mL, 30 min. The series is classed as cell-based, murine. As for the experimental part: as §5, §6, §7
Setting [15] is: dose dependent, N2a and primary neurons.

Turning to `Cc1ccc(S(=O)(=O)OCC(=O)Nc2ccc(C(=O)O)c(O)c2)cc1` [S31-201], the “reduction of the IL-6 induced increase in IL-1β level, newborn brain homogenates” value in [1] is recorded as about 50%. The “IL-6 induced STAT3 phosphorylation in newborn brain homogenates” value in [2] is “significantly reduce”. For the same compound, the “IL-1β cytokine level in adult offspring brain homogenates” value in [3] is on record as “significantly reduces”. Further, in series [4], the “TNF-α cytokine level in adult offspring brain homogenates” value is “significantly reduces”. Also, in [5], the “social interaction test, sniffing time” value is on record as “increase in sniffing compared to IL-6/MIA mice” and the “social interaction test, social impairment (preference for the social chamber)” value is reported as “significantly attenuated”. For the same compound, the “STAT3 phosphorylation in adult offspring brain homogenates” value in [6] is listed as “significant reduction”. For the same compound, the “IL-6 induced JAK2 phosphorylation in newborn brain homogenates” value in series [7] is on record as “significantly reduce”. In addition, the “reduction of the IL-6 induced increase in TNF-α level, newborn brain homogenates” value in series [8] is reported as about 50%. The “open-field test, entries into the center” value in [9] is “entering the center more often than IL-6 treated animals”. In [9] (mouse, in vivo), the “open-field behaviour, inhibitor-treated control (non-IL-6 injected) mice vs PBS-treated mice” value is “did not find a significance”.

Take `COc1ccc(-c2cc(=O)c3c(O)cc(O)cc3o2)cc1O` [diosmetin]: the plasma half-life in series [10] is 26 to 43 h.

With `COc1ccc(-c2cc(=O)c3c(O)cc(O[C@@H]4O[C@H](CO[C@@H]5O[C@@H](C)[C@H](O)[C@@H](O)[C@H]5O)[C@@H](O)[C@H](O)[C@H]4O)cc3o2)cc1O` [diosmin], in series [11], the “inhibition of activation/phosphorylation of STAT3 induced by IL-6” value is listed as “inhibit activation/phosphorylation of STAT3”. Besides, the “reduction of the IL-6 induced increase in IL-1β level, newborn brain homogenates” value in [1] is reported as about 50%. For the same compound, the “IL-6 induced STAT3 phosphorylation in newborn brain homogenates” value in series [2] was “significantly reduce”. Also, the “IL-1β cytokine level in adult offspring brain homogenates” value in series [3] is reported as “significantly reduces”. Also, the “TNF-α cytokine level in adult offspring brain homogenates” value in [4] is listed as “significantly reduces”. In [5], the “social interaction test, sniffing time” value was “increase in sniffing compared to IL-6/MIA mice” and the “social interaction test, social impairment (preference for the social chamber)” value is listed as “significantly attenuated”. Moreover, the “STAT3 phosphorylation in adult offspring brain homogenates” value in [6] was “significant reduction”. For the same compound, the “IL-6 induced JAK2 phosphorylation in newborn brain homogenates” value in [7] was “significantly reduce”. Moreover, in series [8], the “reduction of the IL-6 induced increase in TNF-α level, newborn brain homogenates” value is about 50%. In addition, in series [12], the “safety and tolerability in clinical trials” value was “excellent safety profile and were well tolerated”. In addition, the “open-field test, entries into the center” value in series [9] was “entering the center more often than IL-6 treated animals”.

For the compound `O=c1cc(-c2ccc(O)c(O)c2)oc2cc(O)cc(O)c12` [luteolin, 3′,4′,5,7-tetrahydroxyflavone], the “inhibition of activation/phosphorylation of STAT3 induced by IL-6” value in [11] was “inhibit activation/phosphorylation of STAT3”. In [13] (setting [15]), the “concentration at which significant reductions of STAT3 (Ser727) phosphorylation begin” value came out at 10 µM. Besides, the “effect on apoprotein level of STAT3” value in series [13] (luteolin 0-20 μM) was “did not affect”. Besides, the “concentration at which significant reductions of JAK2 phosphorylation begin” value in series [14] (setting [15]) worked out at 10 µM. Besides, in [14] (luteolin 0-20 μM), the “effect on apoprotein level of JAK2” value is “did not affect”.

The values are drawn from patent publication US8778894B2, “Luteolin and diosmin/diosmetin as novel STAT3 inhibitors for treating autism” (University of South Florida, priority 2008, dated 2014).
